From patent publication US10197556B2, “Methods to detect non-genotoxic carcinogens using flatworms” (Universiteit Gent, priority 2015, dated 2019)
Where a name gives a salt, the structure may show the parent alone. Read-outs that look alike come from different tables or passages of the source.

What was measured:
Macrostomum lignano = conditions: for prediction by the assay in the experiments: outcome over the experiments
Description: Cultures of Macrostomum lignano (37) were grown in artificial seawater (ASW) enriched with f/2-medium (40) and fed ad libitum with the diatom Nitzschia curvilineata (PAE culture collection; UGent on the World Wide Web at pae.ugent.be/collection.htm), as described in references 41 and 43.
One week before starting chemical exposure, a six-well plate filled with 4 ml f/2 medium (Novolab NV) was inoculated with diatoms to achieve an ad libitum food source during exposure. Starvation of the worms leads to a decrease in stem cell proliferation (as shown in Nimeth et al (29)), which would interfere with stem cell proliferation, the endpoint of the assay. Before the start of exposure, fifteen adult worms per condition were pipetted in each well, which was then emptied by pipetting without drying out the worms and refilled with f/2 medium (control), if required, F2+0.05% DMSO (vehicle control) and a concentration of the chemical.
The DMSO concentration in the vehicle control never exceeded 0.05%. This represented the maximum DMSO percentage in the chemical's highest test concentration.
To select the appropriate compound concentration, first, a broad concentration range-finding experiment (spacing factor 10; two weeks exposure) was carried out. Based on this pilot range finding, a fine-tuned range finding (spacing factor less than or equal to 2; for D-Mannitol factor 5) was chosen to conduct the assay. The maximum concentration tested depended on the test compound solubility and the requirement of a survival of twelve out of fifteen worms at the end of exposure.
For all chemicals investigated in this disclosure, the medium was refreshed weekly.
After a preliminary test (CP as reference) on different exposure times ranging from two days to six weeks, the worms were exposed for a period of two weeks, after which they were subjected to phosphorylated histone H3 immunostaining (PH3) to quantify mitosis.
To quantify mitotic cells in whole mount specimens, the mitotic marker anti-PH3 was used. The staining was performed by first relaxing the animals in a 1:1 mixture of MgCl2.6H2O (7.14%) and ASW (5 minutes), then in MgCl2.6H2O (7.14%) (undiluted, 5 minutes), followed by fixation in paraformaldehyde (PFA, 4% in PBS, 60 minutes). Animals were then rinsed with phosphate-buffered saline (PBS, 3×5 minutes) and blocked in bovine serum albumin, containing TRITON® (BSA-T, 0.1% TRITON® X-100, 60 minutes). Subsequently, animals were incubated in primary rabbit-anti-phos-H3 (1:300 in BSA-T, overnight, 4° C., Upstate Biotechnology), rinsed in PBS (3×5 minutes) and incubated in secondary TRITC-conjugated swine-anti-rabbit (1:150 in BSA-T, 1 hour, DAKO). Finally, animals were washed with PBS (3×5 minutes) and slides were mounted using Vectashield (Vector Laboratories). Slides were analyzed using a Leica 2500P microscope equipped with epifluorescence, a 40× objective and a DFC360FX CCD camera.
All somatic PH3-positive cells were counted manually using the Image J cell counter plugin (44) (FIG. 1). Gonadal PH3+ cells were not included in the analysis because of 1) the high density of divisions in that region that can lead to overlapping signals and 2) the germ line representing a separate population of cells, differentially tolerant to exposure, which can result in quantification variability.
The cut-off value of the assay was determined based on density plots (R version 2.15.3; (33)) of the number of mitotic stem cells of all experiments for controls (sea water and DMSO), non-carcinogens, genotoxic carcinogens and non-genotoxic carcinogens. The cut-off value of 30 lays in the tail of the distribution corresponding to the 97.5 percentile or two standard deviations.
Concentrations resulting in the death of 20% of the worms (three out of fifteen) during exposure were considered cytotoxic and were not analyzed.

Schmidtea mediterranea = system: Schmidtea mediterranea
Description: Asexual strains of the freshwater planarian Schmidtea mediterranea (38, 45) were maintained in culture medium, consisting of water, that was first deionized and then distilled, and to which the following nutrients were added: 1.6 mM NaCl, 1.0 mM CaCl2, 1.0 mM MgSO4, 0.1 mM MgCl2, 0.1 mM KCl and 1.2 mM NaHCO3. The animals were continuously kept in the dark at a room temperature of 20° C. and were fed once a week with veal liver.
Experiments were performed with regenerating animals (heads and tails) to accelerate initial responses to carcinogenic compounds, as this process of massive cell proliferation, migration and differentiation resembles the process of carcinogenesis, and, possibly differently affects the dynamics of stem cells toward genotoxic and non-genotoxic carcinogen exposures (16, 32, 39).
In each experimental condition, animals were cut transversally immediately before exposure to a genotoxic, non-genotoxic or non-carcinogen concentration, medium (control) or medium with DMSO (vehicle control). Exposures were performed in six-well plates (4 ml/well). To exclude intrinsic effects of DMSO on cell proliferation, the DMSO vehicle concentration never exceeded 0.05% and interaction effects between the test compound and DMSO were investigated using a two-way ANOVA (32). […] Animals were fed once a week with veal liver and starved for one week before stem cell proliferation measurements. Stem cell proliferation was measured after one day of regeneration (the mitotic minimum of regeneration), after three days (the mitotic maximum of regeneration), after one week (the end stage of regeneration) after two and six weeks (during homeostasis), as well as at the appearance of organismal phenotypes (15, 46, 47). Phenotypic effects were monitored daily with a stereo microscope.
An in vivo study allows the investigation of the entire organism's response to carcinogenic compounds and, as such, makes it possible to link carcinogen-induced stem cell proliferation with the organism's phenotype. Conditions were subdivided according to their phenotypic effects into concentrations that caused no observable phenotypic effects (category 1), phenotypic effects (category 2, described in phenotypic effect screening) and concentrations that induced organismal death (category 3). Phenotypic parameters that were monitored daily were tissue regression, lesion, blisters, bloating, pigmentation, behavior, regenerative success, body size, tissue outgrowth, flattened posture and organismal death (35). Stem cell proliferation was quantified at the appearance of systemic effects (category 2 concentrations).

[1] = 0.3125 μM, Experiment 1, two weeks exposure
[2] = 0.3125 μM, Experiment 3, two weeks exposure
[3] = 0.625 μM, Experiment 1, two weeks exposure
[4] = 0.625 μM, Experiment 2, two weeks exposure
[5] = 0.625 μM, Experiment 3, two weeks exposure
[6] = category 2 concentrations, three days (MMS), one week (4NQO), two weeks (S-PB, CPZ, MPH)
[7] = asexual strain, Schmidtea mediterranea, in vivo

CC/C(=C(/CC)c1ccc(O)cc1)c1ccc(O)cc1 [Diethylbestrol, Diethylstilbestrol]
Pred (Macrostomum lignano; [1]): + (+ in case 20% or more worms having 30 or more mitotic stem cells) | proportion of worms having 30 or more mitotic stem cells (Macrostomum lignano; [1]): 100% | proportion of worms having 30 or more mitotic stem cells (Macrostomum lignano; 0.3125 μM, Experiment 2, two weeks exposure): 12.5% | Pred (Macrostomum lignano; [2]): + (+ in case 20% or more worms having 30 or more mitotic stem cells) | proportion of worms having 30 or more mitotic stem cells (Macrostomum lignano; [2]): 33.3% | Pred (Macrostomum lignano; [3]): + (+ in case 20% or more worms having 30 or more mitotic stem cells) | proportion of worms having 30 or more mitotic stem cells (Macrostomum lignano; [3]): 27.3% | Pred (Macrostomum lignano; [4]): + (+ in case 20% or more worms having 30 or more mitotic stem cells) | proportion of worms having 30 or more mitotic stem cells (Macrostomum lignano; [4]): 50% | Pred (Macrostomum lignano; [5]): + (+ in case 20% or more worms having 30 or more mitotic stem cells) | proportion of worms having 30 or more mitotic stem cells (Macrostomum lignano; [5]): 22.2% | Prediction of the experiment (Macrostomum lignano; Experiment 1, all concentrations, two weeks exposure): Pos | Prediction of the experiment (Macrostomum lignano; Experiment 2, all concentrations, two weeks exposure): Pos | Prediction of the experiment (Macrostomum lignano; Experiment 3, all concentrations, two weeks exposure): Pos | Overall prediction (Macrostomum lignano; final prediction call over three experiments): Pos | prediction by the assay in the experiments (Macrostomum lignano; two weeks exposure): predicted positive for all three experiments

COS(C)(=O)=O [MMS, methyl methane sulphonate]
Cat. 2 concentrations: Phenotypic effects (Schmidtea mediterranea; MMS, exposure three days): 400 to 500 µM | Cat. 3 concentrations: Mortality (Schmidtea mediterranea; MMS, exposure three days): 1 mM | Number of animals with Behavior effects (Schmidtea mediterranea; [6]): 14/14 | Number of animals with Body size effects (Schmidtea mediterranea; [6]): 10/14 | Number of animals with Pigmentation (Schmidtea mediterranea; [6]): 1/14 | Number of animals with Regenerative success effects (Schmidtea mediterranea; [6]): 14/14 | Number of animals with Tissue regression (Schmidtea mediterranea; [6]): 3/14

CN(C)CCN(Cc1cccs1)c1ccccn1 [MPH, methapyrilene hydrochloride]
Number of animals with Behavior effects (Schmidtea mediterranea; [7]): 8/8 | Number of animals with Body size effects (Schmidtea mediterranea; [7]): 8/8

CCC1(c2ccccc2)C(=O)NC(=O)NC1=O [S-PB, sodium phenobarbital]
Cat. 1 concentrations: No effects on phenotype (Schmidtea mediterranea; S-PB, exposure two weeks): 1 mM | Cat. 2 concentrations: Phenotypic effects (Schmidtea mediterranea; S-PB, exposure two weeks): 2000 µM | Cat. 3 concentrations: Mortality (Schmidtea mediterranea; S-PB, exposure two weeks): 4 mM | Number of animals with Behavior effects (Schmidtea mediterranea; [6]): 2/2

Cc1noc(NS(=O)(=O)c2ccc(N)cc2)c1C [Sulfisoxazole]
proportion of worms having 30 or more mitotic stem cells (Macrostomum lignano; […] μM, Experiment 1, two weeks exposure): 0% | proportion of worms having 30 or more mitotic stem cells (Macrostomum lignano; […] μM, Experiment 3, two weeks exposure): 0% | proportion of worms having 30 or more mitotic stem cells (Macrostomum lignano; 500 μM, Experiment 1, two weeks exposure): 0% | proportion of worms having 30 or more mitotic stem cells (Macrostomum lignano; 500 μM, Experiment 2, two weeks exposure): 11.1% | proportion of worms having 30 or more mitotic stem cells (Macrostomum lignano; 500 μM, Experiment 3, two weeks exposure): 0% | proportion of worms having 30 or more mitotic stem cells (Macrostomum lignano; 1000 μM, Experiment 1, two weeks exposure): 0% | proportion of worms having 30 or more mitotic stem cells (Macrostomum lignano; 1000 μM, Experiment 2, two weeks exposure): 0% | proportion of worms having 30 or more mitotic stem cells (Macrostomum lignano; 1000 μM, Experiment 3, two weeks exposure): 0% | concentration up to which predicted negative (Macrostomum lignano; all three experiments, two weeks exposure): up to 1 mM | lethality of the worms (Macrostomum lignano; concentrations higher than the highest analyzed (Sox >1 mM, CP >100 μM, 4NQO >0.5 μM)): greater than 20% | prediction by the assay in the experiments (Macrostomum lignano; two weeks exposure): predicted negative for all three experiments
